According to publication PMC10421868, “The acquisition order of leukemic drug resistance mutations is directed by the selective fitness associated with each resistance mechanism” (Scientific Reports, 2023):

Key:
[1] = target: BCR::ABL1 kinase activity (Homo sapiens, UniProt P00519+P11274)
Protocol: Western blotting for phosphorylated CT10 regulator of kinase-like (p-CrkL) was performed as previously described.

[2] = test system: Chronic Myeloid Leukemia patients; conditions: CML patients; cited from earlier work
[3] = test system: K562 and K562 DasR cells; assay: Intracellular uptake and retention (IUR) assay; type: in vitro ADME; conditions: 2 μM C14-dasatinib, 2 h, 37 °C
Protocol: To determine the quantity of intracellular dasatinib in leukemic cells, and the dasatinib transport functionality of ABCG2, the intracellular uptake and retention (IUR) assay was performed as previously described. K562 and K562 DasR cells were washed and incubated with 0 or 2 μM C^14-dasatinib kindly provided by Bristol Myers Squibb (New York, NY), in the presence or absence of 0.5 μM Ko143. This was performed using 2 × 10^5 cells in 2 mL of RPMI-1640 + 10% FCS, for 2 h at 37 °C. Following incubation, cells were pelleted by centrifugation for 5 min at 6800 rpm then 30 s at 13,000 rpm. Radioactivity of C^14-dasatinib was determined independently in the supernatant and cell pellet using a Tri-Carb 2810R Liquid Scintillation Counter (Perkin Elmer, Inc., Waltham, MA). The IUR was reported as ng of dasatinib incorporated per 200,000 cells. Results are expressed as paired –/ + Ko143 samples.

BCR::ABL1 kinase activity, sequence (P11274+P00519 fused): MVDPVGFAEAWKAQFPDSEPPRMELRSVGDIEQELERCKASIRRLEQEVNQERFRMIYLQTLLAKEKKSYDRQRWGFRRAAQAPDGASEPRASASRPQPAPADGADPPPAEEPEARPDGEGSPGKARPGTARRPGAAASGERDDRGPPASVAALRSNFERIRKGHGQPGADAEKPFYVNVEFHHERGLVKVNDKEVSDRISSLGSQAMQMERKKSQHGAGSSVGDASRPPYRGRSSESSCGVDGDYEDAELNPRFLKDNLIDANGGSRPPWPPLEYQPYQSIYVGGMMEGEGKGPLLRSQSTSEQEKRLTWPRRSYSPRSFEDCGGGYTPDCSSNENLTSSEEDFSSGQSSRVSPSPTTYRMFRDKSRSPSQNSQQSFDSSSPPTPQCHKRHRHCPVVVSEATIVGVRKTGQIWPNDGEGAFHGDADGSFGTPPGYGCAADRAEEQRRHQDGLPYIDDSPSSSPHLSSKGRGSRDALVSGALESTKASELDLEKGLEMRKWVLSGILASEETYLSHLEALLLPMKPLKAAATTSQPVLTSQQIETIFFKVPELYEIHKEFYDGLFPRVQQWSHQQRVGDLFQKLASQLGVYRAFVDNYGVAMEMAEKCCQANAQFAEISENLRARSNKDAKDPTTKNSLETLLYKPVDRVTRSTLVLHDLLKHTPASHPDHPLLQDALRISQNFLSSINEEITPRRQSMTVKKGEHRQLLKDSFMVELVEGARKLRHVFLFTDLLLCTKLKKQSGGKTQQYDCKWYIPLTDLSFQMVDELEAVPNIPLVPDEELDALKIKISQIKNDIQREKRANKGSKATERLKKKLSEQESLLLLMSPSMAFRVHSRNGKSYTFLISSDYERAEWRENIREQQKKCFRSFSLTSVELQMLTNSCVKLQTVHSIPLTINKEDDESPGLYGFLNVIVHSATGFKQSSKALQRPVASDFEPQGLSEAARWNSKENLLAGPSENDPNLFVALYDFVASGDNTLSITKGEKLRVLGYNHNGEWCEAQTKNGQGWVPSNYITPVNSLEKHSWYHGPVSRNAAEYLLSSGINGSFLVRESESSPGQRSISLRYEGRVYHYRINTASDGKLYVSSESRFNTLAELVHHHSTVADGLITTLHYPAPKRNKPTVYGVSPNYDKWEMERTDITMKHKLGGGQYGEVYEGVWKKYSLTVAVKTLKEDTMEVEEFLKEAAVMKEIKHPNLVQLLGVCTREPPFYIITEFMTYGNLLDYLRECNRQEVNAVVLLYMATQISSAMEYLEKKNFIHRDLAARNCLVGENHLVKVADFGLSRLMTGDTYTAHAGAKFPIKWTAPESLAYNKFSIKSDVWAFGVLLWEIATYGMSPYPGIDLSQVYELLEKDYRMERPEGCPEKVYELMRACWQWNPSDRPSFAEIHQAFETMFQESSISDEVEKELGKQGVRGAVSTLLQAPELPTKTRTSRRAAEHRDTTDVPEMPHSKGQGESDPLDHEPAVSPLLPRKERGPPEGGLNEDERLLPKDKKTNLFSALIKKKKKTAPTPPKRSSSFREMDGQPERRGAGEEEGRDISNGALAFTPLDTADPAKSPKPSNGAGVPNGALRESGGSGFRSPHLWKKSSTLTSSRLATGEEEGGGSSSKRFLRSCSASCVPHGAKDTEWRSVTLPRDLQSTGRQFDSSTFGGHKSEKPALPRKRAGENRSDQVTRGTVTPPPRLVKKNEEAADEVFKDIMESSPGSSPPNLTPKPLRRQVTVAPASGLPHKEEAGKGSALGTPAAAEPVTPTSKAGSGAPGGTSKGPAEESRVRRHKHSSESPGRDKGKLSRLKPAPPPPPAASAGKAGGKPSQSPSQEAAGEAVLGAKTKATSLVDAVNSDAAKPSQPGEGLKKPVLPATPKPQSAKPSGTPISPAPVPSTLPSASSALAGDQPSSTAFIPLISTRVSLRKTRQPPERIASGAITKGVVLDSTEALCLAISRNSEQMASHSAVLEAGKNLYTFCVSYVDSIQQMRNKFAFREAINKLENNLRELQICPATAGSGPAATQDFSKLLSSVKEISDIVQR

COc1ccc2c3c([nH]c2c1)[C@H](CC(C)C)N1C(=O)[C@H](CCC(=O)OC(C)(C)C)NC(=O)[C@@H]1C3 [Ko143]
Effect of addition of Ko143 on dasatinib IC50 ([1]; K562 25, 50 and 200 nM DasR lines): no effect | Effect of Ko143 on ponatinib IC50 ([1]; K562 later stage DasR intermediates with lower ABCG2 expression, and DMSO control line): no significant change

COc1cc(Nc2c(C#N)cnc3cc(OCCCN4CCN(C)CC4)c(OC)cc23)c(Cl)cc1Cl [bosutinib]
Suboptimal response, share of treated patients [2]: < 10%

Cc1nc(Nc2ncc(C(=O)Nc3c(C)cccc3Cl)s2)cc(N2CCN(CCO)CC2)n1 [dasatinib]
Intracellular dasatinib (IUR) ([3]; K562 15 nM DasR cells, with 0.5 μM Ko143): 19.39 ng/200,000 cells | Dasatinib uptake (IUR) ([3]; K562 15 nM DasR cells, without Ko143): 12.15 ng/200,000 cells | Dasatinib uptake (IUR) ([3]; K562 control, with 0.5 μM Ko143): 22.07 ng/200,000 cells | Dasatinib uptake (IUR) ([3]; K562 control, without Ko143): 24.56 ng/200,000 cells | Suboptimal response, share of treated patients [2]: < 10%

Cc1ccc(NC(=O)c2ccc(CN3CCN(C)CC3)cc2)cc1Nc1nccc(-c2cccnc2)n1 [imatinib]
10 year survival rate [2]: over 83% | Suboptimal response, share of treated patients [2]: 10–15%

Cc1cn(-c2cc(NC(=O)c3ccc(C)c(Nc4nccc(-c5cccnc5)n4)c3)cc(C(F)(F)F)c2)cn1 [nilotinib]
Suboptimal response, share of treated patients [2]: < 10%
